Data as given in patent publication USRE50663E1, “Heterocycle derivatives as pesticides” (Bayer Aktiengesellschaft, priority 2017, dated 2025).

Assays:
[1] = logP by HPLC on reversed-phase column (C18), acidic range; format: physicochemical; settings: reversed-phase HPLC column (C18), formic acid in water/acetonitrile
Protocol: The logP values were determined according to EEC Directive 79/831 Annex V.A8 by HPLC (high-performance liquid chromatography) on a reversed-phase column (C18) using the following methods:
Calibration was carried out using a homologous series of straight-chain alkan-2-ones (having 3 to 16 carbon atoms) with known logP values. The values between successive alkanones are determined by linear regression.

[2] = system: adult cat fleas (Ctenocephalides felis); assay: Ctenocephalides felis oral test; format: in vivo; settings: 48 h, 100 ppm in citrated cattle blood, after 2 days, read-out: efficacy (kill)
Protocol: (§1) Solvent: dimethyl sulfoxide
To produce a suitable active compound formulation, 10 mg of active compound are mixed with 0.5 ml of dimethyl sulfoxide. Dilution with citrated cattle blood gives the desired concentration.
About 20 unfed adult cat fleas (Ctenocephalides felis) are placed into a chamber which is closed at the top and bottom with gauze. A metal cylinder whose bottom end is closed with parafilm is placed onto the chamber. The cylinder contains the blood/active compound formulation, which can be imbibed by the fleas through the parafilm membrane.
After 2 days, the kill in % is determined. 100% means that all of the fleas have been killed; 0% means that none of the fleas have been killed.

[3] = system: green peach aphids (Myzus persicae); assay: Myzus persicae oral test; format: in vivo; settings: 120 h, 4 ppm, after 5 days, read-out: efficacy
Protocol: Solvent: 100 parts by weight of acetone
To produce a suitable active compound formulation, 1 part by weight of active compound is dissolved with the stated parts by weight of solvent and made up to the desired concentration with water.
50 μl of the active compound formulation are transferred into microtitre plates and made up to a final volume of 200 μl with 150 μl of IPL41 insect medium (33%+15% sugar). Subsequently, the plates are sealed with parafilm, which a mixed population of green peach aphids (Myzus persicae) within a second microtitre plate is able to puncture and imbibe the solution.
(§2) After 5 days, the efficacy in % is determined. 100% means that all the aphids have been killed; 0% means that no aphids have been killed.

[4] = system: adult houseflies (Musca domestica); assay: Musca domestica test; format: in vivo; settings: after 2 days
Protocol: as §1
(§3) To produce a suitable active compound formulation, 10 mg of active compound are mixed with 0.5 ml of dimethyl sulfoxide, and the concentrate is diluted with water to the desired concentration.
Vessels containing a sponge treated with sugar solution and the desired concentration of active compound formulation are populated with 10 adult houseflies (Musca domestica).
After 2 days, the kill in % is determined. 100% means that all of the flies have been killed; 0% means that none of the flies have been killed.

[5] = system: caterpillars of the fall armyworm (Spodoptera frugiperda); assay: Spodoptera frugiperda spray test; format: in vivo; settings: foliar, 168 h, 100 g/ha, after 7 days, maize leaf discs, read-out: efficacy
Protocol: (§4) Solvent: 78.0 parts by weight of acetone • • 1.5 parts by weight of dimethylformamide
(§5) Emulsifier: alkylaryl polyglycol ether
(§6) To produce a suitable active compound formulation, 1 part by weight of active compound is dissolved with the specified parts by weight of solvent and made up to the desired concentration with water containing an emulsifier concentration of 1000 ppm. To produce further test concentrations, the formulation is diluted with emulsifier-containing water.
Leaf discs of maize (Zea mays) are sprayed with an active compound formulation of the desired concentration and, after drying, populated with caterpillars of the fall armyworm (Spodoptera frugiperda).
After 7 days, the efficacy in % is determined. 100% means that all the caterpillars have been killed; 0% means that no caterpillar has been killed.

[6] = system: L1 larvae of the Australian sheep blowfly (Lucilia cuprina); assay: Lucilia cuprina test; format: in vivo; settings: 48 h, 100 ppm, after 2 days, read-out: efficacy (kill)
Protocol: as §1, §3
About 20 L1 larvae of the Australian sheep blowfly (Lucilia cuprina) are transferred into a test vessel containing minced horsemeat and the active compound formulation of the desired concentration.
After 2 days, the kill in % is determined. 100% means that all the larvae have been killed; 0% means that no larvae have been killed.

[7] = system: larvae of the mustard beetle (Phaedon cochleariae); assay: Phaedon cochleariae spray test; format: in vivo; settings: foliar, 168 h, 100 g/ha, after 7 days, Chinese cabbage leaf discs, read-out: efficacy
Protocol: as §4, §5, §6
Discs of Chinese cabbage leaves (Brassica pekinensis) are sprayed with an active compound formulation of the desired concentration and, after drying, populated with larvae of the mustard beetle (Phaedon cochleariae).
After 7 days, the efficacy in % is determined. 100% means that all the beetle larvae have been killed; 0% means that no beetle larvae have been killed.

[8] = system: green peach aphid (Myzus persicae); assay: Myzus persicae spray test; format: in vivo; settings: foliar, 120 h, 100 g/ha, after 5 days, Chinese cabbage leaf discs, read-out: efficacy
Protocol: Solvent: 78 parts by weight of acetone • • 1.5 parts by weight of dimethylformamide
as §5, §6
Discs of Chinese cabbage leaves (Brassica pekinensis) infested by all stages of the green peach aphid (Myzus persicae) are sprayed with an active compound formulation of the desired concentration.
as §2

[9] = system: southern root-knot nematode (Meloidogyne incognita); assay: Meloidogyne incognita test; format: in vivo; settings: 20 ppm, after 14 days, lettuce
Protocol: Solvent: 125.0 parts by weight of acetone
To produce a suitable active compound formulation, 1 part by weight of active compound is mixed with the stated amount of solvent and the concentrate is diluted to the desired concentration with water.
Vessels are filled with sand, active compound solution, an egg/larvae suspension of the southern root-knot nematode (Meloidogyne incognita) and lettuce seeds. The lettuce seeds germinate and the plants develop. The galls develop on the roots.
After 14 days, the nematicidal efficacy in % is determined by the formation of galls. 100% means that no galls were found; 0% means that the number of galls on the treated plants corresponds to the untreated control.

[10] = system: adult cat fleas (Ctenocephalides felis); assay: Ctenocephalides felis in vitro contact test with adult cat fleas; format: in vivo; settings: application rate 5 μg/cm^2 (=500 g/ha), after 48 h, dead or moribund fleas
Protocol: For the coating of the test tubes, 9 mg of active compound are first dissolved in 1 ml of acetone p.a. and then diluted to the desired concentration with acetone p.a. 250 μl of the solution are distributed homogeneously on the inner walls and the base of a 25 ml glass tube by turning and rocking on an orbital shaker (rocking rotation at 30 rpm for 2 h). With 900 ppm of active compound solution and internal surface area 44.7 cm^2, given homogeneous distribution, an area-based dose of 5 μg/cm^2 is achieved.
After the solvent has evaporated off, the tubes are populated with 5-10 adult cat fleas (Ctenocephalides felis), sealed with a perforated plastic lid and incubated in a horizontal position at room temperature and ambient humidity. After 48 h, efficacy is determined. To this end, the tubes are stood upright and the fleas are knocked to the base of the tube. Fleas which remain motionless at the base or move in an uncoordinated manner are considered to be dead or moribund.
100% efficacy means that all the fleas were dead or moribund. 0% efficacy means that no fleas were harmed.

[11] = system: engorged adult female cattle ticks (Boophilus microplus); assay: Boophilus microplus injection test; format: in vivo; settings: 20 μg/animal, injection into abdomen
Protocol: as §1
To produce a suitable active compound formulation, 10 mg of active compound are mixed with 0.5 ml of solvent and the concentrate is diluted to the desired concentration with solvent.
1 μl of the active compound solution is injected into the abdomen of 5 engorged adult female cattle ticks (Boophilus microplus). The animals are transferred into dishes and kept in a climate-controlled room.
The activity is assessed after the desired time by laying of fertile eggs. Eggs which are not visibly fertile are stored in a climate-controlled cabinet until the larvae hatch after about 42 days. An efficacy of 100% means that none of the ticks has laid any fertile eggs; 0% means that all the eggs are fertile.

chromatographic logP [1]	SMILES	pest or weed control at 100 ppm [2]	pest or weed control at 4 ppm [3]	efficacy (kill) ([4]; 100 ppm)	pest or weed control at 100 g/ha [5]	pest or weed control at 100 ppm [6]	pest or weed control at 100 g/ha [7]	pest or weed control at 100 g/ha [8]	nematicidal efficacy (formation of galls) [9]	efficacy [10]	efficacy (kill) ([4]; 20 ppm)	efficacy (no laying of fertile eggs) [11]
2.71	CCS(=O)(=O)c1c(-c2nc3cc(C(F)(F)F)cnc3n2C)nc2cc(NC(=S)NC3CC3)ccn12 [Example I-05, 1-Cyclopropyl-3-{3-(ethylsulfonyl)-2-[3-methyl-6-(trifluoromethyl)-3H-imidazo[4,5-b]pyridin-2-yl]imidazo [1,2-a]pyridin-7-yl}thiourea]	100%	100%	100%	100%	100%	100%	90%	90%			
	CCS(=O)(=O)c1c(-c2nc3cc(SC(F)(F)F)cnc3n2C)nc2cc(S(=O)(=O)C3CC3)ccn12 [Example I-12]	100%	100%	100%	100%		100%	100%				
2.89	CCS(=O)(=O)c1c(-c2nc3cc(C(F)(F)F)cnc3n2C)nc2cc(S(=O)(=O)C3CC3)ccn12 [Example I-09, 2-[7-(Cyclopropylsulfonyl)-3-(ethylsulfonyl)imidazo[1,2-a]pyridin-2-yl]-3-methyl-6-(trifluoromethyl)-3H-imidazo[4,5-b]pyridine]	100%	100%		100%	100%	100%	90%		100%	80%	
	CCS(=O)(=O)c1c(-c2nc3cc(C(F)(F)F)cnc3n2C)nc2cc(NC(=O)C3CC3)ccn12 [Example I-01]	100%	100%	80%	100%	100%	100%	90%		100%		
	CCS(=O)(=O)c1c(-c2nc3cc(C(F)(F)F)cnc3n2C)nc2cc(C(=O)C3CC3)ccn12 [Example I-20]				100%		100%					80%
2.55	CCS(=O)(=O)c1c(-c2nc3cc(C(F)(F)F)cnc3n2C)nc2cc(NS(=O)(=O)NC3CC3)ccn12 [Example I-07, N-Cyclopropyl-N′-{3-(ethylsulfonyl)-2-[3-methyl-6-(trifluoromethyl)-3H-imidazo[4,5-b]pyridin-2-yl]imidazo[1,2-a]pyridin-7-yl}sulfurdiamide]	100%	100%	80%		100%				100%		
	CCS(=O)(=O)c1c(-c2nc3cc(C(F)(F)F)cnc3n2C)nc2cc(C(F)(F)C3CC3)ccn12 [Example I-21]	100%			100%		100%					90%
